Measurements published in PubChem BioAssay (NCI).
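Briefly, cells in 96-well plates were exposed to five compound concentrations for 48 h, and endpoints were estimated by linear interpolation. The concentration for full growth arrest is given as TGI.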

Key:
Test in all cases: growth of human tumour cells (NCI), 48 h
HCC-2998 colon = system: HCC-2998 colon
MDA-MB-231 breast = system: MDA-MB-231 breast
HS 578T breast = system: HS 578T breast
OVCAR-8 ovarian = system: OVCAR-8 ovarian
COLO 205 colon = system: COLO 205 colon
SNB-75 CNS = system: SNB-75 CNS
OVCAR-3 ovarian = system: OVCAR-3 ovarian
DU-145 prostate = system: DU-145 prostate
SF-295 CNS = system: SF-295 CNS
OVCAR-5 ovarian = system: OVCAR-5 ovarian
UO-31 renal = system: UO-31 renal
M14 melanoma = system: M14 melanoma
MALME-3M melanoma = system: MALME-3M melanoma
T-47D breast = system: T-47D breast
HL-60(TB) leukemia = system: HL-60(TB) leukemia
MOLT-4 leukemia = system: MOLT-4 leukemia
HCT-116 colon = system: HCT-116 colon
HOP-62 NSCLC = system: HOP-62 NSCLC
UACC-62 melanoma = system: UACC-62 melanoma
SNB-19 CNS = system: SNB-19 CNS
RXF 393 renal = system: RXF 393 renal
PC-3 prostate = system: PC-3 prostate
SR leukemia = system: SR leukemia
HCT-15 colon = system: HCT-15 colon
MDA-N = system: MDA-N
NCI/ADR-RES ovarian = system: NCI/ADR-RES ovarian
SK-MEL-28 melanoma = system: SK-MEL-28 melanoma
SK-MEL-5 melanoma = system: SK-MEL-5 melanoma
BT-549 breast = system: BT-549 breast
A498 renal = system: A498 renal
KM12 colon = system: KM12 colon
MCF7 breast = system: MCF7 breast
CAKI-1 renal = system: CAKI-1 renal
K-562 leukemia = system: K-562 leukemia
SK-MEL-2 melanoma = system: SK-MEL-2 melanoma
RPMI-8226 leukemia = system: RPMI-8226 leukemia
U251 CNS = system: U251 CNS
NCI-H522 lung = system: NCI-H522 lung
SK-OV-3 ovarian = system: SK-OV-3 ovarian
NCI-H23 lung = system: NCI-H23 lung
HOP-92 NSCLC = system: HOP-92 NSCLC
MDA-MB-435 = system: MDA-MB-435
HT29 colon = system: HT29 colon
CCRF-CEM leukemia = system: CCRF-CEM leukemia
OVCAR-4 ovarian = system: OVCAR-4 ovarian
TK-10 renal = system: TK-10 renal
IGROV1 ovarian = system: IGROV1 ovarian
UACC-257 melanoma = system: UACC-257 melanoma
ACHN renal = system: ACHN renal
A549 NSCLC = system: A549 NSCLC
NCI-H226 lung = system: NCI-H226 lung
SF-268 CNS = system: SF-268 CNS
786-0 renal = system: 786-0 renal
LOX IMVI melanoma = system: LOX IMVI melanoma
NCI-H460 lung = system: NCI-H460 lung
SF-539 CNS = system: SF-539 CNS
SN12C renal = system: SN12C renal
SW-620 colon = system: SW-620 colon

Cc1ccc([N+](=O)[O-])cc1N=NC(=O)NNc1cc([N+](=O)[O-])ccc1C
TGI (HCC-2998 colon): 58 µM
TGI (MDA-MB-231 breast): 47.8 µM
TGI (HS 578T breast): 55.6 µM
TGI (OVCAR-8 ovarian): 70 µM
TGI (COLO 205 colon): > 100 µM
TGI (SNB-75 CNS): 66.2 µM
TGI (OVCAR-3 ovarian): 39.9 µM
TGI (DU-145 prostate): > 100 µM
TGI (SF-295 CNS): 40.9 µM
TGI (OVCAR-5 ovarian): > 100 µM
TGI (UO-31 renal): 78.9 µM
TGI (M14 melanoma): 53.5 µM
TGI (MALME-3M melanoma): > 100 µM
TGI (T-47D breast): > 100 µM
TGI (HL-60(TB) leukemia): > 100 µM
TGI (MOLT-4 leukemia): 41 µM
TGI (HCT-116 colon): 36.8 µM
TGI (HOP-62 NSCLC): > 100 µM
TGI (UACC-62 melanoma): 33.2 µM
TGI (SNB-19 CNS): > 100 µM
TGI (RXF 393 renal): 66.6 µM
TGI (PC-3 prostate): > 100 µM
TGI (SR leukemia): > 100 µM
TGI (HCT-15 colon): 74.3 µM
TGI (MDA-N): 82.8 µM
TGI (NCI/ADR-RES ovarian): > 100 µM
TGI (SK-MEL-28 melanoma): 87.5 µM
TGI (SK-MEL-5 melanoma): 34.9 µM
TGI (BT-549 breast): 52.1 µM
TGI (A498 renal): 84.4 µM
TGI (KM12 colon): 49.3 µM
TGI (MCF7 breast): 67.3 µM
TGI (CAKI-1 renal): 66.8 µM
TGI (K-562 leukemia): > 100 µM
TGI (SK-MEL-2 melanoma): > 100 µM
TGI (RPMI-8226 leukemia): > 100 µM
TGI (U251 CNS): 97.6 µM
TGI (NCI-H522 lung): 29.7 µM
TGI (SK-OV-3 ovarian): 36 µM
TGI (NCI-H23 lung): > 100 µM
TGI (HOP-92 NSCLC): > 100 µM
TGI (MDA-MB-435): 53 µM
TGI (HT29 colon): 45 µM
TGI (CCRF-CEM leukemia): 40.2 µM

O=C(Oc1cc(=O)c(OC(=O)c2ccccc2)co1)c1ccccc1
TGI (HCC-2998 colon): > 100 µM
TGI (MDA-MB-231 breast): > 100 µM
TGI (HS 578T breast): > 100 µM
TGI (OVCAR-4 ovarian): > 100 µM
TGI (OVCAR-8 ovarian): > 100 µM
TGI (COLO 205 colon): > 100 µM
TGI (SNB-75 CNS): > 100 µM
TGI (TK-10 renal): > 100 µM
TGI (IGROV1 ovarian): > 100 µM
TGI (OVCAR-3 ovarian): > 100 µM
TGI (DU-145 prostate): > 100 µM
TGI (SF-295 CNS): > 100 µM
TGI (OVCAR-5 ovarian): > 100 µM
TGI (UO-31 renal): > 100 µM
TGI (M14 melanoma): > 100 µM
TGI (MALME-3M melanoma): > 100 µM
TGI (T-47D breast): > 100 µM
TGI (HL-60(TB) leukemia): > 100 µM
TGI (MOLT-4 leukemia): > 100 µM
TGI (HCT-116 colon): > 100 µM
TGI (HOP-62 NSCLC): > 100 µM
TGI (UACC-62 melanoma): > 100 µM
TGI (SNB-19 CNS): > 100 µM
TGI (RXF 393 renal): > 100 µM
TGI (PC-3 prostate): > 100 µM
TGI (SR leukemia): > 100 µM
TGI (UACC-257 melanoma): > 100 µM
TGI (HCT-15 colon): > 100 µM
TGI (MDA-N): > 100 µM
TGI (NCI/ADR-RES ovarian): > 100 µM
TGI (SK-MEL-28 melanoma): > 100 µM
TGI (SK-MEL-5 melanoma): > 100 µM
TGI (ACHN renal): > 100 µM
TGI (A549 NSCLC): > 100 µM
TGI (BT-549 breast): > 100 µM
TGI (A498 renal): > 100 µM
TGI (KM12 colon): > 100 µM
TGI (MCF7 breast): > 100 µM
TGI (NCI-H226 lung): > 100 µM
TGI (CAKI-1 renal): > 100 µM
TGI (SF-268 CNS): > 100 µM
TGI (786-0 renal): > 100 µM
TGI (SK-MEL-2 melanoma): > 100 µM
TGI (RPMI-8226 leukemia): > 100 µM
TGI (U251 CNS): > 100 µM
TGI (NCI-H522 lung): > 100 µM
TGI (SK-OV-3 ovarian): > 100 µM
TGI (NCI-H23 lung): > 100 µM
TGI (HOP-92 NSCLC): > 100 µM
TGI (MDA-MB-435): > 100 µM
TGI (HT29 colon): > 100 µM
TGI (LOX IMVI melanoma): > 100 µM
TGI (NCI-H460 lung): > 100 µM
TGI (SF-539 CNS): > 100 µM
TGI (SN12C renal): > 100 µM
TGI (SW-620 colon): > 100 µM
